According to patent US9056836B2, “Benzomorphan analogs and the use thereof” (Purdue Pharma L.P., priority 2013, dated 2015):
Where two headings read alike, the source gives them in different places.

Legend:
κ opioid receptor [1] = molecular target: T1, κ opioid receptor (Homo sapiens (Human), UniProt P41145); assay: κ-opioid receptor radioligand dose-displacement binding assay ([3H]-U69,593)
Protocol: κ-opioid Receptor Binding Assay Procedures: Membranes from recombinant HEK-293 cells expressing the human κ opioid receptor (cloned in house) were prepared by lysing cells in ice cold hypotonic buffer (2.5 mM MgCl2, 50 mM HEPES, pH 7.4) (10 mL/10 cm dish) followed by homogenization with a tissue grinder/Teflon pestle. Membranes were collected by centrifugation at 30,000× g for 15 min at 4° C. and pellets were resuspended in hypotonic buffer to a final concentration of 1-3 mg/mL. Protein concentrations were determined using the BioRad protein assay reagent with bovine serum albumen as standard. Aliquots of κ receptor membranes were stored at −80° C.
Radioligand dose displacement assays used 0.4 nM [^3]-U69,593 (GE Healthcare, Piscataway, N.J.; 40 Ci/mmole) with 15 μg membrane protein (recombinant κ opioid receptor expressed in HEK 293 cells; in-house prep) in a final volume of 200 μl binding buffer (5% DMSO, 50 mM Trizma base, pH 7.4). Non-specific binding was determined in the presence of 10 μM unlabeled naloxone or U69,593. All reactions were performed in 96-well polypropylene plates for 1 hr at a temperature of about 25° C. Binding reactions were terminated by rapid filtration onto 96-well Unifilter GF/C filter plates (Perkin Elmer, Shelton, Conn.) presoaked in 0.5% polyethylenimine (Sigma). Harvesting was performed using a 96-well tissue harvester (Perkin Elmer, Shelton, Conn.) followed by five filtration washes with 200 μl ice-cold binding buffer. Filter plates were subsequently dried at 50° C. for 1-2 hours. Fifty μl/well scintillation cocktail (Perkin Elmer, Shelton, Conn.) was added and plates were counted in a Packard Top-Count for 1 min/well. Data were analyzed using the sigmoidal dose-response curve fitting functions in GraphPad PRISM™ v. 3.0, or an in-house function for non-linear, sigmoidal dose-response curve-fitting.
κ-opioid Receptor Binding Data: In certain embodiments, the Compounds of the Invention will have a Ki (nM) for κ receptors of about 10,000 or more (which, for purposes of this invention, is interpreted as having no binding to the κ receptors).

μ-opioid receptor [2] = molecular target: T2, μ-opioid receptor (Homo sapiens (Human), UniProt P35372); assay: μ-opioid receptor [35S]GTPγS functional assay; format: biochemical; conditions: for Emax: maximal effect relative to DAMGO
Protocol: μ-Opioid Receptor Functional Assay Procedures: [^35S]GTPγS functional assays were conducted using freshly thawed μ-receptor membranes (Perkin Elmer, Shelton, Conn.). Assay reactions were prepared by sequentially adding the following reagents to binding buffer (100 mM NaCl, 10 mM MgCl2, 20 mM HEPES, pH 7.4) on ice (final concentrations indicated): membrane protein (0.026 mg/mL), saponin ([…]), GDP ([…]) and [^35S]GTPγS (0.20 nM; Perkin Elmer, Shelton, Conn.). The prepared membrane solution (190 μl/well) was transferred to 96-shallow well polypropylene plates containing 10 μl of 20× concentrated stock solutions of the agonist [D-Ala^2, N-methyl-Phe^4 Gly-ol^5]-enkephalin (DAMGO) prepared in dimethyl sulfoxide (DMSO). Plates were incubated for 30 min at about 25° C. with shaking. Reactions were terminated by rapid filtration onto 96-well Unifilter GF/B filter plates (Perkin Elmer, Shelton, Conn.) using a 96-well tissue harvester (Perkin Elmer, Shelton, Conn.) followed by three filtration washes with 200 μl of ice-cold wash buffer (10 mM NaH2PO4, 10 mM Na2HPO4, pH 7.4). Filter plates were subsequently dried at 50° C. for 2-3 hr, BetaScint scintillation cocktail (Perkin Elmer, Shelton, Conn.) was added (50 μl/well) and plates were counted using a Packard Top-Count for […]. Data were analyzed using the sigmoidal dose-response curve fitting functions in GraphPad PRISM™; v. 3.0, or an in-house function for non-linear, sigmoidal dose-response curve-fitting.
μ-Opioid Receptor Functional Data: μ GTP EC50 is the concentration of a compound providing 50% of the maximal response for the compound, at a μ-opioid receptor. […] In certain embodiments.
μ GTP Emax (%) is the maximal effect elicited by a compound relative to the effect elicited by DAMGO, a standard μ agonist. Generally, the μ GTP Emax (%) value measures the efficacy of a compound to treat or prevent pain or other Conditions.

κ opioid receptor [3] = molecular target: T1, κ opioid receptor; assay: κ-opioid receptor [35S]GTPγS functional assay; format: biochemical; conditions: for Emax: maximal effect relative to U69,593
Protocol: κ-Opioid Receptor Functional Assay Procedures: Functional [^35S]GTPγS binding assays were conducted as follows, k opioid receptor membrane solution was prepared by sequentially adding final concentrations of 0.026 μg/μl κ membrane protein (in-house), 10 μg/mL saponin, 3 μM GDP and 0.20 [^35S]GTPγS to binding buffer (100 mM NaCl, 10 mM MgCl2, 20 mM HEPES, pH 7.4) on ice. The prepared membrane solution (190 μl/well) was transferred to 96-shallow well polypropylene plates containing 10 μl of 20× concentrated stock solutions of agonist prepared in DMSO. Plates were incubated for 30 min at a temperature of about 25° C. with shaking. Reactions were terminated by rapid filtration onto 96-well Unifilter GF/B filter plates (Perkin Elmer, Shelton, Conn.) using a 96-well tissue harvester (Packard) and followed by three filtration washes with 200 μl ice-cold binding buffer (10 mM NaH2PO4, 10 mM Na2HPO4, pH 7.4). Filter plates were subsequently dried at 50° C. for 2-3 hours. Fifty μl/well scintillation cocktail (Perkin Elmer, Shelton, Conn.) was added and plates were counted in a Packard Top-Count for 1 min/well. Data were analyzed using the sigmoidal dose-response curve fitting functions in GraphPad PRISM™ v. 3.0, or an in-house function for non-linear, sigmoidal dose-response curve-fitting.
κ-Opioid Receptor Functional Data: κ GTP EC50 is the concentration of a compound providing 50% of the maximal response for the compound at a κ receptor.
κ GTP Emax (%) is the maximal effect elicited by a compound relative to the effect elicited by U69,593.

μ-opioid receptor [4] = molecular target: T2, μ-opioid receptor; assay: μ-opioid receptor radioligand dose-displacement binding assay ([3H]-diprenorphine); conditions: binding affinity, μ-opioid receptor membranes
Protocol: μ-opioid Receptor Binding Assay Procedures: Radioligand dose-displacement binding assays for μ-opioid receptors used 0.3 nM [^3H]-diprenorphine (Perkin Elmer, Shelton, Conn.), with […] membrane protein/well in a final volume of 500 μl binding buffer (10 mM MgCl2, 1 mM EDTA, 5% DMSO, 50 mM HEPES, pH 7.4). Reactions were carried out in the absence or presence of increasing concentrations of unlabeled naloxone. All reactions were conducted in 96-deep well polypropylene plates for 2 hr at room temperature. Binding reactions were terminated by rapid filtration onto 96-well Unifilter GF/C filter plates (Perkin Elmer, Shelton, Conn.), presoaked in 0.5% polyethylenimine using a 96-well tissue harvester (Perkin Elmer, Shelton, Conn.) followed by performing three filtration washes with 500 μl of ice-cold binding buffer. Filter plates were subsequently dried at 50° C. for 2-3 hours. BetaScint scintillation cocktail (Perkin Elmer, Shelton, Conn.) was added (50 μl/well), and plates were counted using a Packard Top-Count for 1 min/well. The data were analyzed using the one-site competition curve fitting functions in GraphPad PRISM™ v. 3.0 or higher (San Diego. Calif.), or an in-house function for one-site competition curve-fitting.

[5] = binding affinity, recombinant κ opioid receptor expressed in HEK 293 cells, read-out: Ki (nM) Opioid Receptor κ
[6] = μ GTP EC50, read-out: GTPγS μ EC50
[7] = κ GTP EC50, read-out: GTPγS κ EC50

Molecule COc1ccc2c(c1)[C@]1(CCO)CCN(CC3CC3)[C@H](C2)[C@@H]1CO [Compound 19, 2-((2R,6S,11R)-3-(cyclopropylmethyl)-11-(hydroxymethyl)-8-methoxy-1,2,3,4,5,6-hexahydro-2,6-methanobenzo[d]azocin-6-yl)ethanol] has a Ki (κ opioid receptor [1]) of 89.6 ± 33 nM, an EC50 (μ-opioid receptor [2]) greater than 20 µM and an EC50 (κ opioid receptor [3]) of 1.86 ± 0.231 µM. It also gave an Emax (κ opioid receptor [3]) of 40.3 ± 5.36%.
COc1ccc2c(c1)[C@]1(CC(N)=O)CCN(CC3CC3)[C@H](C2)[C@@H]1CO [Compound 22, 2-((2R,6S,11R)-3-(cyclopropylmethyl)-11-(hydroxymethyl)-8-methoxy-1,2,3,4,5,6-hexahydro-2,6-methanobenzo[d]azocin-6-yl)acetamide] showed a Ki (κ opioid receptor [1]; [5]) of 79.1 ± 19.1 nM, an Emax (μ-opioid receptor [2]) of 56 ± 3.61% and an EC50 (μ-opioid receptor [2]; [6]) of 1.28 ± 0.177 µM. For the same molecule, the Emax (κ opioid receptor [3]) was 41.7 ± 4.91% and the EC50 (κ opioid receptor [3]; [7]) was 2.18 ± 0.326 µM.
For O=C(O)/C=C1\[C@H]2Cc3ccc(O)cc3[C@]1(CCCC(=O)O)CCN2CC1CC1 [Compound 13, 4-((2R,6S,Z)-11-(carboxymethylene)-3-(cyclopropylmethyl)-8-hydroxy-1,2,3,4,5,6-hexahydro-2,6-methanobenzo[d]azocin-6-yl)butanoic acid], the Ki (μ-opioid receptor [4]) was 1340 ± 356 nM, the Ki (κ opioid receptor [1]; [5]) was 66.8 ± 8.74 nM and the Emax (μ-opioid receptor [2]) was 44.3 ± 9.06%. It also gave an EC50 (μ-opioid receptor [2]; [6]) of 0.743 ± 0.195 µM, an Emax (κ opioid receptor [3]) of 74.3 ± 7.84% and an EC50 (κ opioid receptor [3]; [7]) of 0.555 ± 0.0611 µM.
Work on CN(C)C(=O)CCC[C@]12CCN(CC3CC3)[C@H](Cc3ccc(O)cc31)/C2=C\C(=O)O [Compound 12, (Z)-2-((2R,6S)-3-(cyclopropylmethyl)-6-(4-(dimethylamino)-4-oxobutyl)-8-hydroxy-1,2,3,4,5,6-hexahydro-2,6-methanobenzo[d]azocin-11-ylidene)acetic acid] yielded a Ki (μ-opioid receptor [4]) of 853 ± 199 nM, a Ki (κ opioid receptor [1]; [5]) of 42.5 ± 4.24 nM and an Emax (μ-opioid receptor [2]) of 48.7 ± 3.53%. The EC50 (μ-opioid receptor [2]; [6]) was 0.421 ± 0.14 µM, the Emax (κ opioid receptor [3]) was 74.7 ± 1.2% and the EC50 (κ opioid receptor [3]; [7]) was 1 ± 0.106 µM.
Molecule O=C(O)CCC[C@]12CCN(CC3CC3)[C@H](Cc3ccc(O)cc31)[C@@H]2CC(=O)O [Compound 10, 4-((2R,6R,11R)-11-(carboxymethyl)-3-(cyclopropylmethyl)-8-hydroxy-1,2,3,4,5,6-hexahydro-2,6-methanobenzo[d]azocin-6-yl)butanoic acid] has a Ki (μ-opioid receptor [4]) of 977 ± 335 nM, a Ki (κ opioid receptor [1]; [5]) of 64.5 ± 11.3 nM and an Emax (μ-opioid receptor [2]) of 16 ± 3%. It also gave an EC50 (μ-opioid receptor [2]; [6]) of 0.0705 ± 0.0269 µM, an Emax (κ opioid receptor [3]) of 31.3 ± 1.86% and an EC50 (κ opioid receptor [3]; [7]) of 0.275 ± 0.0436 µM.
